# According to PMC12259270, “Sensory neuron–expressed FGF13 controls nociceptive signaling in diabetic neuropathy models” (The Journal of Clinical Investigation, 2025):
# Residues, ends and D or L forms follow the SMILES beside them. *: point of attachment. Cbz = O=C(OCc1ccccc1)*; OtBu = CC(C)(C)O*
# Biological target: T1, human Nav1.7 (Homo sapiens, UniProt Q15858)
# T1 construct: expressed in transfected cells; host or cells: HEK293 stably expressing human Nav1.7
# Assay: Whole-cell patch-clamp, HEK293 cells stably expressing human Nav1.7 with GFP or FGF13-GFP
# Assay type: cell-based
# Parameters: Nav1.7 repriming time course, Mean / Figure 4I, Mean versus Time (ms): unit not given here
# Conditions: for use dependency, normalized INa amplitude, Mean: Fig 1I; for long-term inactivation, Mean: Fig 1J; for Nav1.7 repriming time course, Mean: Fig 1K; for Nav1.7 repriming time course, Mean / Time constant of repriming, Mean: PW164; for Time constant of repriming, Mean: Fig 1L
# Procedure: Whole-cell patch clamp electrophysiology
# HEK293-Nav1.7 cells, HEK293 stably expressing human Nav1.6 (HEK-Nav1.6), HEK293 stably expressing human Nav1.5 (HEK-Nav1.5), human hIPSC-derived sensory neurons (RealDRGTM from Anatomic Incorporated 1020F1-1M) and donor-derived DRG neurons were plated at low density on glass coverslips and processed for whole-cell patch clamp electrophysiology in voltage-clamp and/or current clamp mode. Whole-cell patch electrophysiological experiments were conducted following previously published studies (26). Current densities were obtained by dividing INa amplitude by membrane capacitance. Current –voltage relationships were generated by plotting current density as a function of the […]. Conductance (G Na) was calculated by the […]
# where INa is the current amplitude at voltage Vm, and Erev is the Na+ reversal potential.
# Activation curves were derived by plotting normalized GNa as a function of test potential and fitted using […]
# Where GNa,Max is the maximum conductance, Va is the membrane potential of half-maximal activation, Em is the membrane voltage and k is the slope factor. For steady -state inactivation, normalized current amplitude (INa/INa,Max) at the test potential was plotted as a function of prepulse potential (Vm) and fitted using the […]
# Where Vh is the potential of half-maximal inactivation, E m is the membrane voltage, and k is the slope factor.
# Transient INa inactivation decay was estimated with the standard exponential equation. Inactivation time constant (tau, τ) was fitted with the following equation: […]
# where I(t) is the amplitude of the current at time t and Iss is the steady-state current during a single voltage-step.
# The goodness of fitting was determined by correlation coefficient (R), and the cutoff of R was set at 0.85. To observe effects on long-term inactivation (LTI), a four-step protocol was employed during which cells were subjected to four 0 mV, 20 ms depolarization pulses separated by −90 mV, 40 ms recovery intervals. To control for various cell sizes, the current densities were calculated by dividing INa peak current amplitude/membrane capacitance (Cm). To represent the fraction of channels entering into LTI, the peak INa observed during depolarization cycles 2-4 was normalized to the peak INa observed during depolarization cycle 1 (INa/INa,Cycle 1) and plotted as a function of the depolarization cycle.
# The cumulative (frequency-dependent) use-dependency was determined by applying 20 pulses with a depolarization to −10 mV (50 ms duration) and 50 ms recovery intervals with a train of 20 pulses at 10 Hz from a holding potential at -70 mV. The current pulses were normalized to the first reco rded pulse and the currents at the 2nd to 20th pulses were compared. The same train was used to record use-dependency at various frequencies […]
# The rate of recovery from inactivation was recorded at -80 mV with a standard repriming voltage protocol.
# The cells were prepulsed to -20 mV for 20 ms to inactivate all currents, then driven back to the recovery potential (Vrec) for increasing recovery durations before the test pulse to 0 mV. The maximum pulse rate was 0.5 Hz. The […]
# follows previous publications (16). The time constants were estimated from single exponential decay to time courses measured at recovery potentials ranging from -140 to -60 mV with the protocol as mentioned above.
# Electrophysiological Recordings
# HEK293 cells: Electrophysiological recordings in HEK293 stably expressing Nav1.7 (HEK-Nav1.7), Nav1.5 (HEK-Nav1.5) or Nav1.6 (HEK-Nav1.6) were performed at room temperature using a MultiClamp 700B or an Axopatch 200B amplifier (Molecular Devices) after incubating coverslips for 60 minutes either with 0.1% DMSO or 50 μM PW164 or ZL192 in the extracellular solution. The composition of recording solutions consisted of the […]
# following salts: extracellular (mM): 140 NaCl, 3 KCl, 1 MgCl2, 1 CaCl2, 10 HEPES, 10 glucose, pH 7.3; […]
# intracellular (mM): 130 CH3O3 SCs, 1 EGTA, 10 NaCl, 10 HEPES, pH 7.3. […]
# T1 sequence (Q92913 1-192 partner limits assumed): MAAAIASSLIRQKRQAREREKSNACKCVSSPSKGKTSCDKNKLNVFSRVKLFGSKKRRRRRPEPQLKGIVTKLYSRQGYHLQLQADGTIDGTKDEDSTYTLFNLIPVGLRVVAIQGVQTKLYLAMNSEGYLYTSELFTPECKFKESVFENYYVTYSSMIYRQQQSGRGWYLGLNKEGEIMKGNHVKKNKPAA
# T1 sequence (Q15858 1-1977 isoform Q15858-3): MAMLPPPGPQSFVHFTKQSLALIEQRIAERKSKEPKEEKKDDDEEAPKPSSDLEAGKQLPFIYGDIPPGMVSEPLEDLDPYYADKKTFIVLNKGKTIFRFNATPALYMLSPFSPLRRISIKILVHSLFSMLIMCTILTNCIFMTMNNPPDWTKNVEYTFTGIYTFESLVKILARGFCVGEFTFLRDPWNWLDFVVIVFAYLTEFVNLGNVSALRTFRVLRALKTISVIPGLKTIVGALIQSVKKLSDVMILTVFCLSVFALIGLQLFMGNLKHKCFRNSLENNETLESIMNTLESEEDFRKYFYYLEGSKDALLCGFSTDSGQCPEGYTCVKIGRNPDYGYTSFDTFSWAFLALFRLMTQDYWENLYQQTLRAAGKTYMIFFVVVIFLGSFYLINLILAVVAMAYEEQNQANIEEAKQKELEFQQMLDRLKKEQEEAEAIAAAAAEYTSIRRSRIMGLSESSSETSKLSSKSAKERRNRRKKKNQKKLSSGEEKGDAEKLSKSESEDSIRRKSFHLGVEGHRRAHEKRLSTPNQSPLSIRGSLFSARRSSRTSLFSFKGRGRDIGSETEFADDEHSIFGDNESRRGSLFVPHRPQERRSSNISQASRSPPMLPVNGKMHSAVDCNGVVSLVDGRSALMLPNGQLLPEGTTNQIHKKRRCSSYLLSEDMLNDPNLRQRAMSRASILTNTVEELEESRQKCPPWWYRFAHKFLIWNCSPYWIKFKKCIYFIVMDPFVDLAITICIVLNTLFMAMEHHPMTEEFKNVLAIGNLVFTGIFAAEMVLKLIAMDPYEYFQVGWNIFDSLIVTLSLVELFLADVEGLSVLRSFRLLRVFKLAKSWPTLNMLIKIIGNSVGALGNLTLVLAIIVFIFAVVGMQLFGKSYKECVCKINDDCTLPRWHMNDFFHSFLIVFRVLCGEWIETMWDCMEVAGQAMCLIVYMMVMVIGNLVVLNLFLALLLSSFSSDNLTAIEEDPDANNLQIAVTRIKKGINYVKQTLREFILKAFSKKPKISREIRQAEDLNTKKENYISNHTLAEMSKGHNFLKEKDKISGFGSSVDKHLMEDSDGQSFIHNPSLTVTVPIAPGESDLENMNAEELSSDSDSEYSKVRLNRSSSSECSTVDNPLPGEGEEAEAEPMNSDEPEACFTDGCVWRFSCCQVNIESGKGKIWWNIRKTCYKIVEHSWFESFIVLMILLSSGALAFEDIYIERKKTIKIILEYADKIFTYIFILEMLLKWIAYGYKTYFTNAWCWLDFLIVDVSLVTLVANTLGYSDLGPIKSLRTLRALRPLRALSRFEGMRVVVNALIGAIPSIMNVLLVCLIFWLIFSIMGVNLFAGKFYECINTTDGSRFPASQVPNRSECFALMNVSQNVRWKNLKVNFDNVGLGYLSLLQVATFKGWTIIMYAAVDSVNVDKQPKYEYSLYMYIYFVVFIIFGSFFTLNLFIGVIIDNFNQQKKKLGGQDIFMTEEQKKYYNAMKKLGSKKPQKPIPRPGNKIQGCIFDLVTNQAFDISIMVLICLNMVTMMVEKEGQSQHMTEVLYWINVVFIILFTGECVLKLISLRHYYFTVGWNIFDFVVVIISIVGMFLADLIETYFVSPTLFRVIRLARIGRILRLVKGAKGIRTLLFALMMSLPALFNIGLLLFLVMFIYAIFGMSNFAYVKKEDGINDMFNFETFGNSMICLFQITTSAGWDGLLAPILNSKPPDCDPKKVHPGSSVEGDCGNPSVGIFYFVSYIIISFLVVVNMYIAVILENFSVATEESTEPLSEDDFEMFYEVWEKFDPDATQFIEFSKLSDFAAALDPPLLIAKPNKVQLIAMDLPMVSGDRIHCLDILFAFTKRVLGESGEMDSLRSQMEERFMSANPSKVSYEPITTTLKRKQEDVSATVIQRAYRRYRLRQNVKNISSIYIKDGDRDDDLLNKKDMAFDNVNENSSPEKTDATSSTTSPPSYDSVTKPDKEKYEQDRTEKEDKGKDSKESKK
smiles,measurement,setting,value
COC(=O)[C@@H](NC(=O)[C@H](CCC(=O)OC(C)(C)C)NC(=O)[C@H](CC(C)C)NC(=O)[C@@H]1CCCN1C(=O)OCc1ccccc1)C(C)C [PW164] (Cbz-PLE(OtBu)V-OMe),"use dependency, normalized INa amplitude, Mean","FGF13-GFP + PW164, Pulse 1",1
same,"use dependency, normalized INa amplitude, Mean","FGF13-GFP + PW164, Pulse 3",0.7166
same,"use dependency, normalized INa amplitude, Mean","FGF13-GFP + PW164, Pulse 6",0.6629
same,"use dependency, normalized INa amplitude, Mean","FGF13-GFP + PW164, Pulse 10",0.6585
same,"use dependency, normalized INa amplitude, Mean","FGF13-GFP + PW164, Pulse 15",0.6477
same,"use dependency, normalized INa amplitude, Mean","FGF13-GFP + PW164, Pulse 20",0.6421
same,"use dependency, normalized INa amplitude, Mean","GFP + PW164, Pulse 1",1
same,"use dependency, normalized INa amplitude, Mean","GFP + PW164, Pulse 3",0.9017
same,"use dependency, normalized INa amplitude, Mean","GFP + PW164, Pulse 6",0.9079
same,"use dependency, normalized INa amplitude, Mean","GFP + PW164, Pulse 10",0.9071
same,"use dependency, normalized INa amplitude, Mean","GFP + PW164, Pulse 15",0.9039
same,"use dependency, normalized INa amplitude, Mean","GFP + PW164, Pulse 20",0.8633
same,"long-term inactivation, Mean","FGF13-GFP + PW164, Pulse 1",100
same,"long-term inactivation, Mean","FGF13-GFP + PW164, Pulse 2",69.7175
same,"long-term inactivation, Mean","FGF13-GFP + PW164, Pulse 3",60.3266
same,"long-term inactivation, Mean","FGF13-GFP + PW164, Pulse 4",59.3421
same,"long-term inactivation, Mean","GFP + PW164, Pulse 1",100
same,"long-term inactivation, Mean","GFP + PW164, Pulse 2",67.9412
same,"long-term inactivation, Mean","GFP + PW164, Pulse 3",62.3462
same,"long-term inactivation, Mean","GFP + PW164, Pulse 4",60.9288
same,"Nav1.7 repriming time course, Mean","Nav1.7 + FGF13-GFP, Time (ms) 2",-1.745
same,"Nav1.7 repriming time course, Mean","Nav1.7 + FGF13-GFP, Time (ms) 5",-3.217
same,"Nav1.7 repriming time course, Mean","Nav1.7 + FGF13-GFP, Time (ms) 9",-6.791
same,"Nav1.7 repriming time course, Mean","Nav1.7 + FGF13-GFP, Time (ms) 17",-10.2331
same,"Nav1.7 repriming time course, Mean","Nav1.7 + FGF13-GFP, Time (ms) 33",-13.6908
same,"Nav1.7 repriming time course, Mean","Nav1.7 + FGF13-GFP, Time (ms) 65",-18.7676
same,"Nav1.7 repriming time course, Mean","Nav1.7 + FGF13-GFP, Time (ms) 129",-22.4288
same,"Nav1.7 repriming time course, Mean","Nav1.7 + FGF13-GFP, Time (ms) 257",-26.5719
same,"Nav1.7 repriming time course, Mean","Nav1.7 + FGF13-GFP, Time (ms) 513",-28.3171
same,"Nav1.7 repriming time course, Mean","Nav1.7 + FGF13-GFP, Time (ms) 1025",-29.4614
same,"Nav1.7 repriming time course, Mean","Nav1.7 + FGF13-GFP, Time (ms) 2000",-30.5045
same,"Nav1.7 repriming time course, Mean","Nav1.7 + GFP, Time (ms) 2",-0.8155
same,"Nav1.7 repriming time course, Mean","Nav1.7 + GFP, Time (ms) 5",-1.631
same,"Nav1.7 repriming time course, Mean","Nav1.7 + GFP, Time (ms) 9",-4.0928
same,"Nav1.7 repriming time course, Mean","Nav1.7 + GFP, Time (ms) 17",-9.754
same,"Nav1.7 repriming time course, Mean","Nav1.7 + GFP, Time (ms) 33",-14.6809
same,"Nav1.7 repriming time course, Mean","Nav1.7 + GFP, Time (ms) 65",-21.498
same,"Nav1.7 repriming time course, Mean","Nav1.7 + GFP, Time (ms) 129",-26.6853
same,"Nav1.7 repriming time course, Mean","Nav1.7 + GFP, Time (ms) 257",-32.6576
same,"Nav1.7 repriming time course, Mean","Nav1.7 + GFP, Time (ms) 513",-33.7798
same,"Nav1.7 repriming time course, Mean","Nav1.7 + GFP, Time (ms) 1025",-35.5926
same,"Nav1.7 repriming time course, Mean","Nav1.7 + GFP, Time (ms) 2000",-36.9364
same,"Time constant of repriming, Mean","Nav1.7 + FGF13-GFP, recovery potential -60",51.44 ms
same,"Time constant of repriming, Mean","Nav1.7 + FGF13-GFP, recovery potential -70",60.77 ms
same,"Time constant of repriming, Mean","Nav1.7 + FGF13-GFP, recovery potential -80",68.88 ms
same,"Time constant of repriming, Mean","Nav1.7 + FGF13-GFP, recovery potential -90",64.58 ms
